{
  "source": "patent US20080221078A1",
  "about": "“Use of a CB1 Antagonist for Treating Side Effects and Negative Symptoms of Schizophrenia” (priority 2005, published 2008)",
  "key": {"Male Sprague-Dawley rats [1]": {"tested_on": "Male Sprague-Dawley rats", "test": "Amphetamine-induced locomotion", "assay_type": "in vivo, rat", "description": "(§1) Animals: Male CD-1 mice (Charles River Laboratories) weighing 20-30 g were used. Male Sprague-Dawley rats (Charles River Laboratories) weighing 250-433 g were used. […] Procedure: A standard automated locomotion assay was employed (see, for example: R. Christopher Pierce and Peter Kalivas. (1997) Locomotor Behavior. In: Current Protocols in Neuroscience, Volume 3, 8.1.1-8.1.8. G. P. Taylor, Editor. New York: John Wiley & Sons, Inc.). Horizontal activity was measured by beam breaks of photocells lining the chamber exterior to the activity boxes. The activity was measured for 60 min during spontaneous locomotion or 90 min for the PCP or amphetamine-induced assays. Example 2 was administered per os (po) with a 1 hr pre-treatment. […] PCP or amphetamine was administered ip or subcutaneous (sc), respectively, with no pre-treatment. When pre-treatment time elapsed for each rodent, the activity cage was transferred from its holding rack and placed into its own locomotion chamber. Independent start time is possible with the recording of activity commencing almost immediately. The computer automatically times out each chamber individually when the session has ended. Drugs: Doses of Example 2 for mice were 0.3, 1, 3, and 10 mg/kg, p.o. The lowest dose was not tested in spontaneous locomotion for rats. The three highest doses of Example 2 were tested against PCP-induced and amphetamine-induced locomotion in mice and rats, respectively. The conventional antipsychotic haloperidol was used in co-administration with Example 2 (1, 3, and 10 mg/kg) at the doses of 0.1 and 0.2 mg/kg in mice to reverse PCP-induced locomotion. Haloperidol was co-administered at the dose of 0.3 mg/kg in rats to reverse amphetamine-induced locomotion.\n(§2) Phencyclidine and amphetamine were dissolved in distilled water."}, "Male Sprague-Dawley rats [2]": {"tested_on": "Male Sprague-Dawley rats", "test": "Antipsychotic induced catalepsy (bar test)", "settings": "for olanzapine-induced catalepsy: olanzapine 10 mg/kg ip", "quoted_text": "(§3) Animals: Male Sprague-Dawley rats (Charles River Laboratories) weighing 267-457 g were used. The animals were housed under standard laboratory conditions as outlined in the NIH Guide for Care and Use of Laboratory Animals. They were maintained on a 12:12 light/dark cycle with tap water and Lab Diet rodent chow ad libitum. Rats were acclimatized to the experimental room for 60 min prior to injections. Procedure: The test for catalepsy consists of placing an individual animal in a white translucent plastic box (26×20×15 cm) with a wooden dowel mounted horizontally 10 cm from the floor and 4 cm from one end of the box. The floor is covered with approximately 1 cm of bedding material. Test animals are transferred from the vivarium in their home cages to the experimental room and are allowed to acclimatize for 60 mins. Five animals are kept in a cage. The animals are transferred into another cage after treatment. […] 30 mins after the second treatment, animals were placed individually in the white translucent plastic boxes and tested for catalepsy following a one minute acclimatization period. A group of five animals are tested at a time. Each treatment group consists of 10 animals.\n(§4) At the end of the one minute acclimation period, each animal is gently grasped around the shoulders and under the forepaws, and gently placed on the wooden dowel. The amount of time each rat spends with at least one forepaw on the bar determined for a maximum period of 180 seconds. This is repeated three times.\n(§5) Haloperidol was used at the dose of 1 mg/kg.\n(§6) Haloperidol was dissolved in distilled water via dilution of a 5 mg/ml stock solution in distilled water. Olanzapine was dissolved in three drops of HCl prior to the addition of distilled water to full volume."}, "[3]": {"test": "Antipsychotic induced catalepsy (bar test)", "settings": "male, Sprague-Dawley, rat, in vivo, intraperitoneal", "quoted_text": "as §3, §4, §5, §6"}, "Male CD-1 mice": {"tested_on": "Male CD-1 mice", "test": "PCP-induced locomotion", "assay_type": "in vivo, mouse", "description": "as §1, §2"}, "[4]": {"tested_on": "Female Wistar rats on high fat diet", "test": "Antipsychotic (olanzapine) induced weight gain", "quoted_text": "Animals: Female Wistar rats on high fat diet were used in this Example."}, "rats": {"tested_on": "rats", "test": "MK-801-induced persistent latent inhibition (conditioned emotional response procedure)", "assay_type": "in vivo, rat", "excerpt": "When the bottle was not present, the hole was covered by a metal lid. Licks were detected by a Campden Instruments drinkometer. The preexposed to-be-conditioned stimulus was a 10 sec, 80 dB, 2.8 kHz tone produced by a Sonalert module. Shock was supplied through the floor by a Campden Instruments shock generator and shock scrambler set at 0.5 mA and 1 sec duration. Equipment programming and data recording were computer controlled.\nWater in the test apparatus was given in addition to the daily ration of 1 h given in the home cages.\nShock immediately followed tone termination. The first tone-shock pairing was given 5 min after the start of the session. After the last pairing, rats were left in the experimental chamber for an additional 5 min.\nWhen the rat completed 75 licks the tone was presented for 5 min. The following times were recorded: Time to first lick, time to complete licks 1-50, time to complete licks 51-75 (before tone onset) and time to complete licks 76-100 (after tone onset). Times to complete licks 76-100 were logarithmically transformed to allow parametric analysis of variance. Longer log times indicate stronger suppression of drinking."}, "Male Sprague Dawley rats": {"tested_on": "Male Sprague Dawley rats", "test": "Holeboard test (working memory performance)", "assay_type": "in vivo, rat", "excerpt": "Similarly, a working memory performance in a rat hole board model has been used to measure various cognition deficits. The hole board task is a well-known and widely used assay to measure working and reference memory in rodents. This model utilizes a board with 8 holes, each baited with a food reward, thus taking advantage of the rodent's natural propensity to forage for food. In a modified version, it has now been able to assess improvements in working memory performance without the use of amnestic agents. Male Sprague Dawley rats are allowed to find and consume 4 of the 8 rewards and then removed to the home cage for 2 minutes. They are then returned and allowed to find and consume the remaining 4 rewards. Any returns to holes already visited are considered working memory errors.\nAnimals: Male Sprague Dawley rats (Charles River) were housed on a 12 hour light/dark cycle, with lights on at 06:00. Rats were maintained at 80% of their normal body weight, with average starting weights at 200-220 grams. Rats were acclimated to the testing chamber (Med-Associates, Inc. hole board in a ventilated, sound-attenuating cubicle) for four 10-minute trials over a two-day period 24 hours prior to drug treatments. The testing chamber contains eight holes, each of which is baited with a food reward (cocoa puff). Procedure: Each experiment was carried over two-three days, with a 3 day (experiment 1), 4 day (experiment 2), and 3 day (experiment 3) washout in between. Thirty two animals were used for each experiment, with each animal pseudo-randomly assigned to treatment groups such that each animal received two of the four-five treatments, with an even distribution of all possible treatment-treatment combinations. There were a total of 16 animals per treatment group. On test days, rats were injected intraperitoneally (i.p.) with N-{1-[bis(4-chlorophenyl)methyl]azetidin-3-yl}-N-(3,5-difluorophenyl)methylsulfonamide (Example 2) (Exp 1: 0.3, 1, or 3 mg/kg; Exp 2: 1, 3 or 10 mg/kg) or vehicle (distilled water with 1% tween). For Exp 3, rats were injected i.p. with risperidone followed by Example 2 (Exp 3: 0.010, 0.10, or 1.0 mg/kg with 3 mg/kg Example 2) or vehicle (0.9% NaCl with 1% tween). The rats were then placed in the test chamber 60 minutes later. After consuming 4 food rewards, the rats were removed from the chamber for 2 minutes and returned to their home cage. They were then returned to the chamber and allowed to retrieve and finish the remaining four rewards, or for a total of 10 minutes. […] The number of visits to holes that they have already visited were noted. Drugs: Doses of Example 2 were 0.3, 1 and 3 mg/kg (experiment 1) and 1, 3 and 10 mg/kg (experiment 2). Example 2 was put into suspension with distilled water (exp 1 & 2) or 0.9% NaCl (exp 3), with the addition of tween 80. Doses of risperidone (antipsychotic, Sigma) were 0.010, 0.10, and 1.0 mg/kg (experiment 3). risperidone was solubilized in 0.9% NaCl with the addition of 1% tween 80,"}},
  "data": [
    {"molecule": "O=C(CCCN1CCC(O)(c2ccc(Cl)cc2)CC1)c1ccc(F)cc1", "note": "[haloperidol, reference compound]", "values": [
      {"measurement": "reversal of locomotor hyperactivity", "setting": "Male Sprague-Dawley rats [1]; haloperidol 0.3 mg/kg ip", "value": "highly significant reversal"},
      {"measurement": "induction of catalepsy compared to vehicle treated animals", "setting": "Male Sprague-Dawley rats [2]; haloperidol 1 and 3 mg/kg", "value": "significantly induces catalepsy"},
      {"measurement": "ED50 at 30 min", "setting": "[3]", "value": 0.64, "unit": "mg/kg"}
    ]},
    {"molecule": "N-{1-[Bis(4-chlorophenyl)methyl]azetidin-3-yl}-N-(3,5-difluorophenyl)methylsulfonamide [Example 2]", "values": [
      {"measurement": "reversal of locomotor hyperactivity induced by d-AMPH", "setting": "Male Sprague-Dawley rats [1]; rats, Example 2 alone 1, 3, and 10 mg/kg p.o.", "value": "no significant reversal"},
      {"measurement": "effect of co-treatment with haloperidol on amphetamine-induced locomotion", "setting": "Male Sprague-Dawley rats [1]; rats, haloperidol 0.3 mg/kg ip with Example 2", "value": "yielded the same effects whether or not Example 2 was present or absent"},
      {"measurement": "effect of co-treatment with olanzapine on amphetamine-induced locomotion", "setting": "Male Sprague-Dawley rats [1]; rats, olanzapine 1 and 3 mg/kg ip with Example 2", "value": "yielded the same effects whether or not Example 2 was present or absent"},
      {"measurement": "reversal of locomotor hyperactivity induced by PCP", "setting": "Male CD-1 mice; Example 2 alone 1, 3, and 10 mg/kg p.o.", "value": "no significant reversal"},
      {"measurement": "effect of co-treatment with haloperidol on PCP-induced locomotion", "setting": "Male CD-1 mice; haloperidol 0.1 and 0.2 mg/kg ip with Example 2 1, 3, 10 mg/kg p.o.", "value": "yielded the same effects whether or not Example 2 was present or absent"},
      {"measurement": "effect of co-treatment with olanzapine on PCP-induced locomotion", "setting": "Male CD-1 mice; olanzapine 0.03 and 0.3 mg/kg ip with Example 2 1, 3, 10 mg/kg p.o.", "value": "yielded the same effects whether or not Example 2 was present or absent"},
      {"measurement": "weight gain vs. saline controls", "setting": "[4]; 10 mg/kg Example 2 i.p. with olanzapine 3 mg/kg i.p.", "value": "not significant from saline controls"},
      {"measurement": "weight vs. saline", "setting": "[4]; Example 2 alone 10 mg/kg i.p.", "value": "no significant effect"},
      {"measurement": "weight gain elicited by olanzapine", "setting": "[4]; co-administration of Example 2 1, 3, and 10 mg/kg i.p. with olanzapine 3 mg/kg i.p.", "value": "dose dependent attenuation"},
      {"measurement": "MK801-induced persistent latent inhibition", "setting": "rats; 1, 3 and 10 mg/kg i.p., 60 minutes prior to pre-exposure and conditioning", "value": "reversed"},
      {"measurement": "number of working memory errors compared to vehicle treated animals", "setting": "Male Sprague Dawley rats; Experiment 1, 0.3 mg/kg i.p., after 2 minute delay", "value": "but not the 0.3 or 1 mg/kg doses"},
      {"measurement": "number of working memory errors compared to vehicle treated animals", "setting": "Male Sprague Dawley rats; Experiment 1, 1 mg/kg i.p., after 2 minute delay", "value": "but not the 0.3 or 1 mg/kg doses"},
      {"measurement": "number of working memory errors compared to vehicle treated animals", "setting": "Male Sprague Dawley rats; Experiment 1, 3 mg/kg i.p., after 2 minute delay, p<0.05", "value": "significant decrease"},
      {"measurement": "number of working memory errors compared to vehicle treated animals", "setting": "Male Sprague Dawley rats; Experiment 2, 3 mg/kg i.p., after 2 minute delay, p<0.05", "value": "significant decrease"},
      {"measurement": "number of working memory errors compared to vehicle treated animals", "setting": "Male Sprague Dawley rats; Experiment 2, 10 mg/kg i.p., after 2 minute delay, p<0.05", "value": "significant decrease"},
      {"measurement": "number of working memory errors compared to vehicle treated animals", "setting": "Male Sprague Dawley rats; Experiment 3, 3 mg/kg Example 2 in combination with 0.10 mg/kg risperidone i.p., p<0.05", "value": "significant decrease"},
      {"measurement": "number of working memory errors compared to vehicle treated animals", "setting": "Male Sprague Dawley rats; Experiment 3, 3 mg/kg i.p. Example 2 alone, p<0.05", "value": "significant decrease"},
      {"measurement": "minimum effective dose for improvement in working memory performance", "setting": "Male Sprague Dawley rats; i.p.", "value": 3, "unit": "mg/kg"},
      {"measurement": "olanzapine-induced catalepsy", "setting": "Male Sprague-Dawley rats [2]; Example 2 3 mg/kg orally", "value": "significantly reversed"},
      {"measurement": "haloperidol-induced catalepsy", "setting": "Male Sprague-Dawley rats [2]; Example 2 10 mg/kg orally, haloperidol 1 mg/kg ip", "value": "significantly reversed"},
      {"measurement": "olanzapine-induced catalepsy", "setting": "Male Sprague-Dawley rats [2]; Example 2 10 mg/kg orally", "value": "significantly reversed"}
    ]},
    {"molecule": "NCC(=O)O", "note": "[glycine, Glycine]", "values": [
      {"measurement": "MK-801-induced abnormally persistent LI", "setting": "rats; glycine 0.8 g/kg i.p., 30 minutes prior to conditioning", "value": "reversed"}
    ]},
    {"molecule": "C[C@]12N[C@H](Cc3ccccc31)c1ccccc12", "note": "[MK-801, dizocilpine]", "values": [
      {"measurement": "latent inhibition (LI) with 40 preexposures and 5 conditioning trials", "setting": "rats; MK-801 0.05 mg/kg i.p., 30 minutes before conditioning", "value": "showed LI in spite of extended conditioning"}
    ]}
  ]
}
